These results are taken from patent publication US20070196514A1, “Prostate cancer treatment with glycogen synthase kinase-3beta inhibitors” (priority 2006, published 2007).

Series [1] relates to PC-3 cells. Nature of the series: clonogenic assay. It is filed as cell-based, human. Particulars: LiCl 10 mM, 14 days. Here is the method:
For clonogenic assays, 1.0×10^3 cells were seeded in a 35-mm dish and cultured in a medium containing LiCl at the indicated doses. The cultures were monitored daily for colony formation. On day 14, the cultures were washed with phosphate-buffered saline (“PBS”), fixed, and stained as described previously (Liao 2005). The colonies were counted and photographed under an inverted microscope.
Next, the clonogenic assay was used to test the effect of LiCl on cell colony formation. The clonogenic survival fractions of the cells cultured in the presence or absence of increasing concentration of LiCl were measured in two cell lines, androgen refractory PC-3 (data shown) and androgen-responsive LNCaP (data not shown).

The test system of a further series is C4-2 cells. Nature of the series: MTT cell growth assay. Particulars: equimolecular concentrations of LiCl, NaCl, KCl, three days. It is filed as cell-based, human. The method, then: (§1) For MTT-based cell growth assays, cells seeded in 96-well plates were serum-starved for 48 hours, and were then treated with vehicle or different reagents for different time periods as indicated in the figures. MTT assay were carried out using a pre-assembled kit (Sigma) according to the manufacturer's manual.
(§2) To rule out the eventual intervention of the chloride anion and the osmotic disturbance, the effect of LiCl was compared with sodium chloride (“NaCl”) and potassium chloride (“KCl”) at equimolecular concentrations in both LNCaP and PC-3 cell lines. In addition, the androgen-insensitive C4-2 cell line was included. To easily handle the experiments while multiple comparisons were taken in place, a MTT assay was used to assess cell growth.

The test system of series [2] is PC-3 cells. Nature of the series: MTT cell growth assay. It is filed as cell-based, human. Conditions: equimolecular concentrations of LiCl, NaCl, KCl, three days. Here is the method: as §1, §2
Another series concerns LNCaP cells. Nature of the series: cell cycle analysis by flow cytometry (PI). Conditions: serum-starved 24 hours then full media with LiCl up to 24 hours. It counts as cell-based, human. Here is the method: For cell cycle analysis, serum-starved cells were left untreated or treated with different inhibitors for various time periods as indicated in the figures. After trypsinization, the cells were fixed and stained with propidium iodide (“PI”). Cell cycle distribution of PI-labeled cells was analyzed on a fluorescence activated cell sorter (Model EPICS XL-MCL, Beckman-Coulter Co., Fullerton, Calif.) as described previously (Miyake 2001).
LNCaP cells were first serum-starved for 24 hours, and were then released by returning them to full culture media in the presence or absence of LiCl for up to 24 hours. Cell cycle distribution was analyzed by flow cytometry (“FCM”). […] When serum was added back in the culture (the control), cells re-entered into cell cycle.

The subject of another series is HEK293 cells. Nature of the series: Affymetrix cDNA microarray for LiCl-induced changes. It is filed as cell-based, human. Particulars: LiCl treatment, data not shown. The method, then:
Androgen-insensitive C4-2 cells and HEK293 cells were used for cDNA-based microarray analysis. After serum starvation for 24 hours, cells were left untreated or treated with LiCl (10 mM) in serum free media for 30 minutes whereas the control cells received PBS in the same media. Then 10% FBS was brought back to both control and LiCl pre-treated cells and incubated for another 6 hours. At the end of treatment, total cellular RNAs were extracted using Trizol-based protocol as described (Liao 2005).
Genechip® arrays (Affymetrix Inc, Santa Clara, Calif.) used herein contain almost 45,000 probe sets representing more than 39,000 transcripts derived from approximately 33,000 well substantial human genes. The in vitro-transcription labeling is conducted using the EnzoBio array high yield RNA transcript labeling kit (Affymetrix). Ten micrograms of total RNAs were used for the first strand cDNA synthesis using the SuperscriptChoice system (Invitrogen).
Genechips were hybridized for 16 hours at 45° C. and 60 rpm in Genechip hybridization oven Model 640. After washing the Genechip, the signal intensity was detected using the Agilent Gene Array scanner.
The most dramatic changes were down-regulation of cdc6, cdc25C, cyclins A and E, as well as up-regulation of CDK inhibitor p21^CIP1. […]

In a further series the test system is AR-null PC-3 xenografts. Nature of the series: mouse xenograft model, protocol A. It is filed as in vivo, nude mice. Conditions: LiCl 2 mg/kg i.p. daily. The method, then:
All animal studies were conducted under an approved Institutional Animal Care and Use Committee protocol. Single cell suspensions (2×10^6 cells in 0.1 ml of RPMI1640 medium plus 10% FBS) were inoculated subcutaneously (s.c.) into the rear flanks (two sites/mouse) of 6 to 7 weeks old male nude mice (Charles River, Wilmington, Mass.). For protocol A, mice were randomly divided into two groups (5 animals each). On next day after inoculation, one group of animals received i.p. injection of LiCl at a daily dose of 2 mg/kg body weight. LiCl was dissolved in PBS. The control groups of animals received PBS alone in the same volume. Xenograft development and growth were monitored for 8 weeks. The tumor dimensions were measured twice a week. The tumor volume was calculated by the formula of L×W×H×0.5236 (Miyake 2001). At the end of treatment, xenograft tumors were extirpated, and the final tumor size and weight, as well as animal weight were measured. For protocol B, treatment began until tumor became palpable or 50 mm^3 in size, and LiCl or PBS was injected (5 animals each group) as above for a two-week course. Tumor size and weight were measured at the end of treatment. For BrdU in vivo labeling, the animals were injected i.p. with 0.5 ml of a 10-mM BrdU solution (Invitrogen) 2 hours before sacrifice. For experiments involving LNCaP-BclxL SB216763 subline cells (Liao 2005) were inoculated as above, and SB216763 treatment was started two weeks later when palpable xenografts were established. The SB216763 for animal use was purchased from Biomol (Plymouth Meeting, Pa.) and dissolved in a formula containing 50% N,N-dimethylacetamide (“DMA”), 45% polyethylene glycol 400 (“PEG-400”) and 5% Tween-80. SB216763 (2 mg/kilogram/bodyweight) or the solvent in 20 μl volume was injected i.p. three times a week. Tumor growth was monitored as discussed herein.
This example investigated GSK-3β inhibitor-induced suppression of cancer cell growth in vivo. A mouse xenograft model was used to examine the effect of GSK-3β inhibitor on tumor growth in two different strategies (protocol A and B). In both protocols, LiCl was delivered at a daily dose i.p. of 2 mg/kg of body weight. This dose level is more than 100-fold lower than a therapeutic dose for mental diseases in mouse (Noble 2005) or human (Moore 2002).
In protocol A, LiCl treatment was started on the same day when AR-null PC-3 cancer cells were inoculated into animals. AR-null PC-3 xenografts were developed around 4 weeks after inoculation in PBS-treated control animals.

The mark [3] stands for this setting: protocol A, end of 8-week treatment.

Turning to `[Cl-].[Li+]` [LiCl, Lithium chloride], in the series with PC-3 cells [1], the clonogenic surviving fractions result is reported as “significantly suppressed”. The “cell growth inhibition (MTT)” value in the series on C4-2 cells is “dramatic inhibition”. For the same compound, in the series on PC-3 cells [2], the “cell growth inhibition (MTT)” value is reported as “dramatic inhibition”. For the same compound, in the series with LNCaP cells, the “portion of S-phase cells” value is “dramatically increased”. In the series with HEK293 cells, the “alterations of cell cycle genes (microarray)” value is “not observed”. In the series on AR-null PC-3 xenografts (nude mice), the “animal body weight and daily activities, treatment vs control” value is “no significant difference”. Also, in the series on AR-null PC-3 xenografts (nude mice, both protocols A and B), the “abnormality of daily activities / side effects” value is given as “no obvious abnormality of daily activities or any sign of side effect”. The “xenograft development, time after inoculation” value with AR-null PC-3 xenografts (protocol A, PBS control around 4 weeks) was 6-7 weeks. In the series with AR-null PC-3 xenografts (setting [3]), the “tumor volume vs PBS control” value is listed as “significant reduction” and the “tumor weight vs PBS control” value is given as “significant reduction”.
